Source: ChEMBL document CHEMBL1201862, “PubChem BioAssay data set” (2004)
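Tested at 5 concentrations; 48 h exposure; 96-well plates; endpoints linearly interpolated, else capped at highest concentration. At the GI50, growth is halved.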 Activity calls are given as the source filed them. Cut-off read from the data, not from the text of the source: active = GI50 up to about 1.1 µM and inactive = higher.

How the values were obtained:
Experiment in all cases: NCI anticancer screen, dose series, 48 h
[1] = tested on: 786-0
[2] = tested on: BT-549
[3] = tested on: CAKI-1
[4] = tested on: CCRF-CEM
[5] = tested on: HCT-15
[6] = tested on: HOP-62
[7] = tested on: HOP-92
[8] = tested on: Hs-578T
[9] = tested on: K562
[10] = tested on: Malme-3M
[11] = tested on: NCI-H522
[12] = tested on: OVCAR-4
[13] = tested on: OVCAR-5
[14] = tested on: RPMI-8226
[15] = tested on: RXF 393
[16] = tested on: SK-MEL-28
[17] = tested on: SR
[18] = tested on: T47D
[19] = tested on: TK-10

Compound | GI50 [1] | GI50 [2] | GI50 [3] | GI50 [4] | GI50 [5] [µM] | GI50 [6] | GI50 [7] | GI50 [8] | GI50 [9] | GI50 [10] | GI50 [11] | GI50 [12] | GI50 [13] | GI50 [14] | GI50 [15] | GI50 [16] | GI50 [17] | GI50 [18] | GI50 [19]
COc1cc(O)c2c(O)c3c(c4c2c1[C@]1(C4)C(C)=CCCC1(C)C)[C@H](O)[C@@]1(O)CC(O)=C(C(N)=O)C(=O)[C@@]1(O)C3=O | 0.247 µM (active) | 0.318 µM (active) | 0.294 µM (active) | 0.0326 µM (active) | 0.164 | 0.16 µM (active) | 0.362 µM (active) | 0.147 µM (active) | 0.123 µM (active) | 0.158 µM (active) | 0.071 µM (active) | 0.245 µM (active) | 0.324 µM (active) | 0.0612 µM (active) | 0.459 µM (active) | 0.873 µM (active) | 0.269 µM (active) | 0.365 µM (active) | 0.189 µM (active)
Cc1cc(C)c(S(=O)(=O)N(CCCN)OCCCON(CCCN)S(=O)(=O)c2c(C)cc(C)cc2C)c(C)c1 | 2.33 µM (inactive) | 3.1 µM (inactive) | 14.2 µM (inactive) | 2.3 µM (inactive) | 18.2 | 1.91 µM (inactive) | 1.98 µM (inactive) | 1.49 µM (inactive) | 2.69 µM (inactive) | 0.879 µM (active) | 1.47 µM (inactive) | 2.29 µM (inactive) | 2.2 µM (inactive) | 2.38 µM (inactive) | 4.6 µM (inactive) | 1.91 µM (inactive) | 2.07 µM (inactive) | 1.61 µM (inactive) | 4.5 µM (inactive)
CC(C)=CCN1c2ccccc2NC(=O)CC1C (configuration not stated) | > 100 µM (inactive) | 22.7 µM (inactive) | > 100 µM (inactive) | > 100 µM (inactive) | > 100 | > 100 µM (inactive) | 38.7 µM (inactive) | > 100 µM (inactive) | > 100 µM (inactive) | > 100 µM (inactive) | > 100 µM (inactive) | 28.4 µM (inactive) | > 100 µM (inactive) | > 100 µM (inactive) | > 100 µM (inactive) | > 100 µM (inactive) | 56.5 µM (inactive) | 84.7 µM (inactive) | 55.8 µM (inactive)
O=C1CCc2cc([N+](=O)[O-])ccc2O1 | > 100 µM (inactive) | > 100 µM (inactive) | > 100 µM (inactive) | > 100 µM (inactive) | > 100 | > 100 µM (inactive) | > 100 µM (inactive) | > 100 µM (inactive) | > 100 µM (inactive) | > 100 µM (inactive) | > 100 µM (inactive) | > 100 µM (inactive) | > 100 µM (inactive) | > 100 µM (inactive) | > 100 µM (inactive) | > 100 µM (inactive) | > 100 µM (inactive) | > 100 µM (inactive) | > 100 µM (inactive)
O=[N+]([O-])c1ccc(C2ON=C(c3ccccc3)N2C23CC4CC(CC(C4)C2)C3)cc1 (configuration not stated) | > 10 µM (inactive) | > 10 µM (inactive) | > 10 µM (inactive) | > 10 µM (inactive) | > 10 | > 10 µM (inactive) | > 10 µM (inactive) | 6.75 µM (inactive) | > 10 µM (inactive) | > 10 µM (inactive) | > 10 µM (inactive) | > 10 µM (inactive) | > 10 µM (inactive) | > 10 µM (inactive) | > 10 µM (inactive) | > 10 µM (inactive) | > 10 µM (inactive) | > 10 µM (inactive) | > 10 µM (inactive)
OCC1CCCCN1Cc1nc2cc(Cl)ccc2[nH]1 (configuration not stated) | > 100 µM (inactive) | > 100 µM (inactive) | > 100 µM (inactive) | > 100 µM (inactive) | > 100 | > 100 µM (inactive) | > 100 µM (inactive) | > 100 µM (inactive) | > 100 µM (inactive) | > 100 µM (inactive) | > 100 µM (inactive) | > 100 µM (inactive) | > 100 µM (inactive) | > 100 µM (inactive) | 65 µM (inactive) | > 100 µM (inactive) | > 100 µM (inactive) | > 100 µM (inactive) | > 100 µM (inactive)
CCCCCCCCCCc1c2nc(c(CCCCCCCCCC)c3ccc([nH]3)c(CCCCCCCCCC)c3nc(c(CCCCCCCCCC)c4ccc1[nH]4)C=C3)C=C2 | > 100 µM (inactive) | > 100 µM (inactive) | > 100 µM (inactive) | > 100 µM (inactive) | > 100 | > 100 µM (inactive) | > 100 µM (inactive) | 30 µM (inactive) | > 100 µM (inactive) | > 100 µM (inactive) | > 100 µM (inactive) | > 100 µM (inactive) | > 100 µM (inactive) | > 100 µM (inactive) | > 100 µM (inactive) | > 100 µM (inactive) | > 100 µM (inactive) | > 100 µM (inactive) | > 100 µM (inactive)
c1ccc(C2=Nc3nc4ccccc4n3C(c3ccccc3)C2)cc1 (configuration not stated) | > 100 µM (inactive) | > 100 µM (inactive) | > 100 µM (inactive) | > 100 µM (inactive) | > 100 | 36 µM (inactive) | 24.6 µM (inactive) | 45.5 µM (inactive) | > 100 µM (inactive) | > 100 µM (inactive) | > 100 µM (inactive) | > 100 µM (inactive) | > 100 µM (inactive) | > 100 µM (inactive) | 41 µM (inactive) | > 100 µM (inactive) | > 100 µM (inactive) | > 100 µM (inactive) | > 100 µM (inactive)
